Laboratory results reported in a melting point compilation (Tetko et al.; mined from patent text by program, amines drawn as free bases though some values may be those of a salt).
Residues, ends and D or L forms follow the SMILES beside them. *: point of attachment. Boc = CC(C)(C)OC(=O)*

Compound	melting point [°C]
CN(C(=O)O)c1cccc(-c2ccnc3c(C(=O)c4cccs4)cnn23)c1	215 to 217
CCOC(=O)C(=Cc1cccn2c(Br)cnc12)N=[N+]=[N-]	90 to 92
CCCCC1(CCCC)CS(=O)(=O)c2ccc(N(C)C)cc2[C@H](c2ccc(OCCOCCC(C(=O)O)C(=O)O)cc2)[C@@H]1O	120
CC1(C)OC(C=Cc2ccc(F)cc2F)=CC1=O	98.5 to 100
C=C[C@H]1CN(c2c(F)cc3c(=O)c(C(=O)O)cn4c3c2OC[C@@H]4C)C[C@H]1N	238 to 240
O=[N+]([O-])c1cc2c(cc1NCC(O)CO)OCO2 (configuration not stated)	120 to 121
CCCCCCc1cccc(NC2=NCCS2)c1	79 to 80
COc1ccc(C(O)c2cc(O)ccc2OC)cc1 (configuration not stated)	62 to 68
C=C(C)C(=O)OCCOC(Cl)C(Cl)(Cl)Cl (configuration not stated)	44 to 45
CN(C)c1ccc(NC(=O)N(C[C@@H]2CCC[C@H](CN(C(=O)Nc3ccc(N(C)C)cc3)C3CCCCCCC3)C2)C2CCCCCCC2)cc1	147 to 149
CC(C)(C)OC(=O)NCC(=O)NCC(=O)NCC(=O)O (Boc-Gly-Gly-Gly-OH)	115 to 120
COc1ccc2[nH]c(S(=O)Cc3cc(N(C)C)c(F)cn3)nc2c1 (configuration not stated)	99 to 102
CC12CCC(C(=NO)C1=O)C(C)(C)O2 (configuration not stated)	158 to 159
COc1cc(Nc2c(C#N)cnc3cc(-c4ccc(CN(CCO)CCO)o4)ccc23)c(Cl)cc1Cl	155 to 160
CC(C)(C)Nc1cc(Cl)nc(NC(C)(C)C)n1	128 to 130
Nc1cc(Br)ccc1-c1ccc(Br)cc1N	118 to 119
C=CCC1Oc2c(C)c(C)c(O)c(C)c2S1 (configuration not stated)	78.5 to 79.5
CNS(=O)(=O)c1ccc(-c2cccc3nc(Nc4cc(OC)c(OC)c(OC)c4)oc23)cc1	260 to 262
COc1cc2[nH]c3ncnc(N4CCNCC4)c3c2cc1OC	185
On1c(C(F)(F)F)nc2ncc(Cl)cc21	264 to 266
CC(C)C(NC(=O)c1ccncc1)C(=O)NC(Cc1ccccc1)C(O)C(Cc1ccccc1)NC(=O)C(NC(=O)c1ccncc1)C(C)C (configuration not stated)	256 to 258
COC1(N2CCCC2)C=CC=C(c2cnc3[nH]cc(C(=O)C(C)(C)C)c3n2)C1 (configuration not stated)	245 to 256
CCCc1cc2c(=O)n3cc(C(N)=O)ccc3nc2s1	260 to 264
c1cc2c(Nc3ccc4[nH]ncc4c3)ncnc2cn1	258

Compound	melting point [°C]
CCCCCCCCCCNc1c(Nc2ccc(CCCNC[C@H](O)COc3cccc4[nH]c5ccccc5c34)cc2)c(=O)c1=O	225
Cc1c(C)n(CC2CC2C)c2c(OCc3ccc(F)cc3)nncc12 (configuration not stated)	114 to 115
O=C1CC(c2cccc(-n3cncn3)c2)=Nc2ccc(C#Cc3ccc(F)cc3)cc2N1	217 to 218
Cc1nccn1-c1nc(-c2ccc(Cl)cc2)c(CCO)o1	159 to 160
O=C(O)Cc1c(C(=O)c2ccc(Cl)cn2)[nH]c2cc(Cl)ccc12	242 to 244
N#CCc1ccc(C(=O)C2CC2)cc1	86 to 87
OCC=C(c1ccc(I)cc1)c1ccc(I)cc1	83 to 85
CCOC(=O)c1ccc(OCc2csc3nc(C(=O)OCC)[nH]c(=O)c23)cc1	205 to 208
CC(C)Oc1ccc2nc(COc3ccc(CC4SC(=O)NC4=O)cc3)n(C)c2n1 (configuration not stated)	210 to 212
COc1ccc(S(=O)(=O)C=CC(=O)O)cc1	123 to 128
Fc1cc2c(cc1F)CC(n1c(-c3nnn[nH]3)c[nH]c1=S)CC2 (configuration not stated)	195 to 212
CCOC(=O)CC12C(OS(=O)(=O)C(F)(F)F)=CC(C(C)CCCC(C)C)C1(C)CCC1=C2CCC2CC(OC(=O)c3ccccc3)CCC12C (configuration not stated)	132 to 134
CC(C)(C)c1cc(Oc2ccc(N)c(O)c2)ccc1Oc1ccc(N)c(O)c1	110 to 113
OC(Cn1cnnc1)(Cn1cncn1)Cn1cncn1	220
CC(C)(C)OC(=O)N1CCC(C=C(Br)Br)CC1	82.3 to 83.9
Cc1nnc(N2N=C(c3ccc([N+](=O)[O-])cc3)c3cc4c(cc3C[C@H]2C)OCO4)o1	202 to 204
CCC(=O)n1nc(-c2cc(C(C)(C)C)c(O)c(C(C)(C)C)c2)c2cccnc21	184 to 185
COc1ccc(CCNCC(O)c2ccc(C)s2)cc1OC (configuration not stated)	108 to 110
N#CC(=Cc1cccnc1)c1cc(Cl)cc(Cl)c1	139 to 141
CC1(C)Oc2c(c(Cl)cc(Cl)c2-n2c(=O)cc(C(F)(F)F)[nH]c2=O)C1=O	308 to 320
CCCCCCCC(=O)NCCCCCOS(C)(=O)=O	67 to 68
CN(CCCCP(=O)(O)O)S(=O)(=O)C(F)(F)C(F)(F)C(F)(F)C(F)(F)C(F)(F)C(F)(F)C(F)(F)C(F)(F)F	150 to 163
Fc1ccc(Nc2ncnc(NN=Cc3ccc(OC(F)(F)F)cc3)n2)cc1C(F)(F)F	185 to 186

The remaining lines, values ahead:

melting point [°C]	Compound
92 to 97	O=C(O)c1ccc(CNC(=O)C2Cc3ccccc3N2S(=O)(=O)c2ccc(-c3ccc(F)cc3OC(F)F)cc2)cc1 (configuration not stated)
165 to 166	COC(=O)c1cc(-c2nc(COc3ccc(COc4nn(-c5ccccc5)cc4C=O)cc3OC)c(C)o2)ccc1OC
133 to 134	O=C(O)CCC(=O)c1ccc(OCCCCN2C(=O)c3ccccc3C2=O)cc1
230 to 232	CC(=O)NNc1ccc(-n2c(-c3ccccc3)csc2=S)cc1
74 to 76	Clc1cc(Cl)c2c(c1)CCC(c1ccccc1)O2 (configuration not stated)
146 to 148	O=C(NCc1ccc(OCc2cccc(F)c2)cc1)C(=NO)c1ccccn1
132 to 139	NS(=O)(=O)c1ccc(-c2c(-c3ccccc3)noc2CC(=O)C(F)(F)F)cc1
99 to 100	COC(=O)[C@H]1Cc2ccc(C)cc2C(=O)[C@H](C)S1 (relative stereo)
> 210	N#CNC(=S)Nc1cccc([N+](=O)[O-])c1
76 to 78	Cc1cccc(OCCOS(N)(=O)=O)c1
141 to 142	Cc1cccc(C)c1N(CCCC(=O)NCCCC(=O)O)C(=O)c1ccc(Cl)cc1
134 to 136	CN(C)CCCOc1ccc2c(c1)C(c1ccccc1)CC(=O)N2 (configuration not stated)
261 to 263	CC(C)(CNC(=O)Cc1cnc[nH]1)c1ccc(C(=O)Nc2cn3cc(C(F)(F)F)ccc3n2)cc1
192 to 195	Cc1c(NC(=O)c2ccc(-c3ccc(F)cc3)cc2)ccc2cc(C(c3ccccc3)N3CCCC3)cnc12 (configuration not stated)
74 to 76	CCCc1ccc(NCc2ccc(N(C)C)cc2)cc1
198 to 202	Cc1cc(F)ccc1-c1cc(N2CCSCC2)ncc1C(N)=O
189 to 198	COc1cc(C2CCN(C)CC2)ccc1Nc1ncc2ccc(-c3cccc(S(=O)(=O)NC(C)(C)C)c3)n2n1
168 to 170	CCn1ncc2c3noc(-c4ccccc4C)c3cnc21
157	COc1ccccc1C(CNc1c(C#N)cnn2cccc12)N1CCOCC1 (configuration not stated)
180 to 182	O=C(CN1C(=O)c2ccccc2S1(=O)=O)Nc1ccccc1
48 to 50	CCOC(=O)c1c(S(=O)(=O)c2ccccc2)cc(C(F)(F)F)nc1C(F)(F)F
97 to 100	Cc1cc(SCCc2cccc3sc(-c4ccc(C(F)(F)F)cc4)nc23)ccc1OCC(=O)O
206	COc1ccc2nccc(CCC[C@@H]3CCN(CCCc4cccc(F)c4)C[C@@H]3C(=O)O)c2c1
217 to 218	Cc1cccc(C(C)C)c1NC(=O)Nc1c(-c2ccccc2F)c2cc(Cl)ccc2oc1=O
174	CC(C)(C)OC(=O)N1CCN(c2ccc3[nH]cc(Sc4ccccc4)c3c2)CC1

melting point [°C]	Compound
109 to 111	CNC(=O)c1oc(C(C)(C)C)cc1NC(=O)Nc1ccc(F)cc1
171 to 173	Cc1c[nH]c2ccc(-c3nn(C(C)c4oc5ccccc5c(=O)c4-c4cccc(F)c4)c4ncnc(N)c34)cc12 (configuration not stated)
182 to 183	COc1cccc2c3c(c(C)nc12)CCN3c1ccccc1C
155 to 157	COc1nc2ccccc2nc1NC(=O)N1CCN(c2cc(C)cc(C)c2)CC1
42 to 43	CC(C)C[C@H](NC(=O)OCCC1c2ccccc2-c2ccccc21)C(=O)O
206	N#Cc1c(N)nc2ccccc2c1NCc1ccccc1
178 to 180	CS(=O)(=O)c1ccc(-c2[nH]nc3c2-c2ccccc2CC3)cc1
117 to 119	Cc1ccc(CN2C(=O)C3(COc4cc5c(cc43)OCO5)c3ccccc32)o1 (configuration not stated)
128 to 129	CC(C)(C)OC(=O)C=Cc1cnc2ccccc2c1
123 to 126	COc1cc2ncnc(N3CCN(C(=S)Nc4ccc(CNC(=O)OC(C)(C)C)cc4)CC3)c2cc1OC
61 to 62	Cc1ccccc1C(=O)c1cc2c(cc1O)CCC2
201 to 203	NNc1cc(-c2ccnc(Nc3cccc(Cl)c3)n2)ccn1
85 to 87	O=C(C=Cc1ccc2c(c1)OCO2)C1CC1
174 to 175	O=C(NCCN1CCOCC1)N1CCN2C(=O)OC(c3ccccc3)(c3ccccc3)C2C1 (configuration not stated)
138 to 139	COc1ccc(C(=O)c2ccc(Cl)nc2)c(O)c1
120 to 121	Cc1cccc(NC(=O)CN2CCN(c3ccccc3)CC2)c1
160 to 165	COc1ccc(Nc2nc(C)ncc2S(=O)(=O)c2ccc(OCc3ccccc3)cc2)c(C)n1
232 to 234	NC(=O)c1sc2nccc(N3CCCN(c4ccc(Cl)nn4)CC3)c2c1N
219 to 221	CCn1cc(C(=O)O)c(=O)c2cc(F)c(N3CCN(c4ncccn4)C(C)C3)c(OC(F)F)c21 (configuration not stated)
180 to 184	c1ccc(-c2nn3c(c2-c2cncc4cccnc24)CCC3)nc1
46 to 48	O=C(O)COCCc1ccccc1
71 to 78	CN(C)CCCCNC(=O)c1ccc(-c2nnc(CSCCOc3ccccc3)o2)cc1
168 to 170	CC(=O)N1C(=O)C(C(=O)c2cccs2)c2cc(Cl)ccc21 (configuration not stated)
150 to 151	O=C(N[C@H]1C=C[C@@H](C(=O)O)C1)c1ccccc1
190 to 191	CCc1nc(CCc2ccc(NC(=O)/C=C/c3cnn(CC)c3-c3ccc(F)cc3)cc2)cs1
